What is called IC50 is the point on the concentration scale where inhibition reaches its midpoint.

Molecules are shown by their SMILES. Read-outs that look alike come from different tables or passages of the source.

For 1 compound, IC50 results are on record in patent US20230065740A1, “CYCLIN-DEPENDENT KINASE INHIBITORS” (SPV THERAPEUTICS INC., priority 2018, published 2023).

Experiment [1] concerns the target T1, CDK2-CYCLINA (Homo sapiens, UniProt P24941).
T1 construct: purchased Millipore
Briefly: Microfluidic LabChip kinase inhibition assay, CDK2-CyclinA. Format: biochemical. The conditions noted are these: 50 μM ATP.

Experiment [2] has as its target T2, CDK9-CYCLINT1 (Homo sapiens, UniProt P50750).
T2 construct: purchased Carna
Briefly: Microfluidic LabChip kinase inhibition assay, CDK9-CyclinT1. The class given is biochemical. The conditions noted are these: 10 μM ATP, read-out: CDK9 CyclinT1 IC50.

The target in experiment [3] is CDK1/B (Homo sapiens, UniProt P06493). Briefly: Additional inhibition assay, CDK1/B. Format: biochemical.
Chain of CDK1/B (P06493 whole entry): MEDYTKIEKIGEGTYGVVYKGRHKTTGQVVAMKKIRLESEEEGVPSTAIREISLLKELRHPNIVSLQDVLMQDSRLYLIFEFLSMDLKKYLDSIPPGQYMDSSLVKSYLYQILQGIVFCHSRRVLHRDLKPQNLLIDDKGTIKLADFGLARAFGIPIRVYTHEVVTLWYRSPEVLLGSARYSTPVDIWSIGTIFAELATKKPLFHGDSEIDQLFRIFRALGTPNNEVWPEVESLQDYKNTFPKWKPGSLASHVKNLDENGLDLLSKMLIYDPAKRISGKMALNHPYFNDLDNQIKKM
Chain of CDK1/B (P14635 whole entry partner): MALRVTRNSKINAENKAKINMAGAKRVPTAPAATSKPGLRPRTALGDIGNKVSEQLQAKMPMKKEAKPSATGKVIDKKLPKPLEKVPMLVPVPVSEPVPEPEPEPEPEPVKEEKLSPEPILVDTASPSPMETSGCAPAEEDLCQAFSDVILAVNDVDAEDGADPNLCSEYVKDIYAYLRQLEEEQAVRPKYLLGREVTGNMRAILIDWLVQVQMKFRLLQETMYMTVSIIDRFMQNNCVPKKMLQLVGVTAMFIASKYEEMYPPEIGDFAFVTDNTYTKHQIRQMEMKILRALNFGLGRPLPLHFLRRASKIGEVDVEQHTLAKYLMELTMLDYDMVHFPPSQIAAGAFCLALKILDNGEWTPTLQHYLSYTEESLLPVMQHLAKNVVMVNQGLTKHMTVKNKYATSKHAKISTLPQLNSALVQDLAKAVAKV
The target in experiment [4] is CDK7 CyclinH (Homo sapiens, UniProt P50613). Briefly: Additional inhibition assay, CDK7 CyclinH. The class given is biochemical.
Chain of CDK7 CyclinH (P50613 whole entry): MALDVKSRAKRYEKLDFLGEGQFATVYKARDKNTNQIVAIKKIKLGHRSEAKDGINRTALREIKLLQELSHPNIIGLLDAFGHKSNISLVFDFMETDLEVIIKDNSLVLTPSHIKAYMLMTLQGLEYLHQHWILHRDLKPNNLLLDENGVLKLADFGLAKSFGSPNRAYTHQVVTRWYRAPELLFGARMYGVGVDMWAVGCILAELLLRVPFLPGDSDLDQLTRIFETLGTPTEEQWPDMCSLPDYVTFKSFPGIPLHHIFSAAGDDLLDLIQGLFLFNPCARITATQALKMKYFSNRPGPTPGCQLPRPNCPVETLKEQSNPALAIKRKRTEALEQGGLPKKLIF
Chain of CDK7 CyclinH (P51946 whole entry partner): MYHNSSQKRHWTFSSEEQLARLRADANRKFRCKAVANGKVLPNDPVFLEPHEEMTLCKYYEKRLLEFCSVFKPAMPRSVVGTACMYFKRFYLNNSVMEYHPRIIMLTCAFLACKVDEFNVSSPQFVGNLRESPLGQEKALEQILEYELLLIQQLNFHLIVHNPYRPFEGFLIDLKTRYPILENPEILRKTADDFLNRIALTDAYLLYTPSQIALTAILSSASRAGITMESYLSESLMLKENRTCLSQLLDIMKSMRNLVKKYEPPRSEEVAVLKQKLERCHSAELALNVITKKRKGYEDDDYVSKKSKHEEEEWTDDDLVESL
Chain of CDK7 CyclinH (P51948 whole entry partner): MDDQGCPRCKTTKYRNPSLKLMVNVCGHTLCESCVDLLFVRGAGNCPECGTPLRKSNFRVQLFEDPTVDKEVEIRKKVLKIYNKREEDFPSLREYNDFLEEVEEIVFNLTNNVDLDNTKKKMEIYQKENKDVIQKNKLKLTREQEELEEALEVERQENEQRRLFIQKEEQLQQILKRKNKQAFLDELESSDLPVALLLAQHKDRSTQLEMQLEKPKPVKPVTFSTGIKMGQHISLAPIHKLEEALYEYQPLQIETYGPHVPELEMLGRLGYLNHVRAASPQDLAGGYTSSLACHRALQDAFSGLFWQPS
Experiment [5] addresses CDK4-CYCLIND1 (Homo sapiens, UniProt P11802). Briefly: Microfluidic LabChip kinase inhibition assay, CDK4-CyclinD1. The following applies: CDK4 CyclinD1 IC50 (μM), 200 μM ATP, second value in parentheses on the next line.

Chain of CDK4-CYCLIND1 (P11802 whole entry): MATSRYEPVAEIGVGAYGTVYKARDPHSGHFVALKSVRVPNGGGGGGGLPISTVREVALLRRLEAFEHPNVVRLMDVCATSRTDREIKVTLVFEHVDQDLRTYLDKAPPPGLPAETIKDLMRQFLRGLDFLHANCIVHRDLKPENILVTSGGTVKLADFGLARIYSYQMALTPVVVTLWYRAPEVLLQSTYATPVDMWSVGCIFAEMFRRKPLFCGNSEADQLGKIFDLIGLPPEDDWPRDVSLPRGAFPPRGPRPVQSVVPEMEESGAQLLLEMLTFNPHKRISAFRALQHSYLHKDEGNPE
Chain of CDK4-CYCLIND1 (P24385 whole entry partner): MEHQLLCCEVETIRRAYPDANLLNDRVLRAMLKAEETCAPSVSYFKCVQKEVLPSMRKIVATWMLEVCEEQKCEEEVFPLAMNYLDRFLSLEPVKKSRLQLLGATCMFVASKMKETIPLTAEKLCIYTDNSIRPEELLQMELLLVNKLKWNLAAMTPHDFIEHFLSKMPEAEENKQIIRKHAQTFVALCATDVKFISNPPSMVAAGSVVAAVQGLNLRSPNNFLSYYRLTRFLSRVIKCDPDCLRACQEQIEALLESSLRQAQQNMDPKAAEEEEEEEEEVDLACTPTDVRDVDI
T2 sequence (P50750 whole entry): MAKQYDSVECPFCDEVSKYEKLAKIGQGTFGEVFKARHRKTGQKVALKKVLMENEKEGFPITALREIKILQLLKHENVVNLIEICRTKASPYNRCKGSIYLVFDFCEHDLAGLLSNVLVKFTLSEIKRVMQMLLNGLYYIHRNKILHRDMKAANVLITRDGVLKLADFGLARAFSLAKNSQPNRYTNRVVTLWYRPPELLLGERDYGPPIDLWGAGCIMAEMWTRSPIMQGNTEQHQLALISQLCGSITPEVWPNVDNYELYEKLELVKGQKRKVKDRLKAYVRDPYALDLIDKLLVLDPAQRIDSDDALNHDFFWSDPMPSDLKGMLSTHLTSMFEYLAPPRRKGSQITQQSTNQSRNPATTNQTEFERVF
T2 sequence (O60563 whole entry partner): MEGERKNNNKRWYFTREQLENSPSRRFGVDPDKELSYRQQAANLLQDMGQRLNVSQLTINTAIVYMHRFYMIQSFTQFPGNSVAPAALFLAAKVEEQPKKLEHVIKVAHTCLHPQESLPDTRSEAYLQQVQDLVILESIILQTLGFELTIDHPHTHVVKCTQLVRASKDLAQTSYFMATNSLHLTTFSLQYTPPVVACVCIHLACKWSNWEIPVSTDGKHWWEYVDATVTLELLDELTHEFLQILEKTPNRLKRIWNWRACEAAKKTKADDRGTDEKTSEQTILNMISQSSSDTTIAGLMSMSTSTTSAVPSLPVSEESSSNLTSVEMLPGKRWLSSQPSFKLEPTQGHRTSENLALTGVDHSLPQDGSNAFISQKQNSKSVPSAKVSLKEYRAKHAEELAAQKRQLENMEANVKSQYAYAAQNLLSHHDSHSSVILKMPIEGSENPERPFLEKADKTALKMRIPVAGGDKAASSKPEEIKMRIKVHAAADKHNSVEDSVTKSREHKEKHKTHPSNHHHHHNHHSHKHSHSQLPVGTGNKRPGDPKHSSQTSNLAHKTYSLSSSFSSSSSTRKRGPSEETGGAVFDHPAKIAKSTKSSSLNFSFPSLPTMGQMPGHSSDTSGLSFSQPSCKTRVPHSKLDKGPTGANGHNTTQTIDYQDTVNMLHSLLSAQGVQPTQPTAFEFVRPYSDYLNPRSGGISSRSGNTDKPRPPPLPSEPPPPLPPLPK

As to `CN(C)CCOc1ccc(Nc2ncc3c(n2)N(C2CCCC2)C2(CCNC2=O)C3)nc1` (stereo not shown) [Compound C210, 7′-cyclopentyl-2′-((5-(2-(dimethylamino)ethoxy)pyridin-2-yl)amino)-5′,7′-dihydrospiro[pyrrolidine-3,6′-pyrrolo[2,3-d]pyrimidin]-2-one], the IC50 in experiment [1] (Table 3a), in experiment [1] (Table 3b), in experiment [2] (Table 3a), in experiment [2] (Table 3b), in experiment [3] (Table 3a) and in experiment [3] (Table 3b) was more than 10 µM in each case. For the same compound, the IC50 in experiment [4] (Table 3a) is more than 10 µM; in experiment [4] (Table 3b) it was more than 10 µM; in experiment [5] (Table 3a) it was 3.96 µM; in experiment [5] (Table 3b) it was 3.96 µM.
